Results as given in patent US12594339B2, “Lipid prodrugs of JAK inhibitors and uses thereof” (Seaport Therapeutics, Inc., priority 2019, dated 2026).

experiment: Lymphatic transport assay in mesenteric lymph-duct cannulated rats; format: in vivo, rat; details: marked with asterisk: analytical procedure without a hydrolysis step (intact lipid prodrug), intraduodenal infusion, anaesthetised mesenteric lymph-duct cannulated rats
Experimental: In order to assess the lymphatic transport of disclosed lipid prodrugs in rats, the mesenteric lymph ducts of the rats used in this study were cannulated to allow continual collection of mesenteric lymph. Lipid formulations containing the compound of interest were then administered to the animals, lymph was collected, and drug concentrations in the lymph samples were quantified.
Lipid-based formulations of the compounds of the invention or control compounds were prepared as previously described (Trevaskis, N. L. et al., Pharmaceutical Research, 2005, 22(11), 1863-1870, WO 2016/023082, and WO 2017/041139, hereby incorporated by reference).
In brief, either 1 or 2 mg of test prodrug, 40 mg oleic acid and 25 mg Tween 80 were mixed in a glass vial and incubated at 37° C. for 12-18 h to equilibrate. An aqueous phase consisting of 5.6 ml phosphate buffered saline (PBS, pH 7.4) was subsequently added to the lipid phase (tofacitinib was dissolved in PBS for the preparation of tofacitinib-containing formulations) and the formulation emulsified by ultrasonication with a Misonix XL 2020 ultrasonic processor (Misonix, Farmingdale, NY, USA) equipped with a 3.2-mm microprobe tip running at 30% of the maximal amplitude of 240 μm and a frequency of 20 kHz for 2 min at room temperature. Doses for administering to more than one animal can be prepared in one batch by suitably increasing the quantities given above. Drug/prodrug concentrations in all formulations were verified using HPLC-MS.
Male Sprague-Dawley (SD) rats were selected for the lymphatic transport studies. Rats (typically 240-320 g) were maintained on a standard diet and fasted overnight with free access to water prior to experiments.
Anesthetized rats were placed on a heated pad at 37° C. and cannulas inserted into the duodenum (for formulation administration and rehydration), mesenteric lymph duct (for lymph collection), and carotid artery (in cases where blood collection was conducted). Post-surgery, rats were re-hydrated for 0.5 h via intraduodenal infusion of normal saline at 2.8 mL/h. The lipid formulations were infused into the duodenum at 2.8 mL/h for 2 h after which, normal saline was infused at 2.8 mL/h for the remainder of the experiment. Lymph was continuously collected for up to 8 h into pre-weighed Eppendorf tubes containing 10 μL of 1,000 IU/mL heparin. The collection tubes were changed hourly and lymph flow was measured gravimetrically. Aliquots of hourly lymph samples were stored at −20° C. prior to assay.
For most compounds, drug concentration in lymph is expressed as total drug and includes free drug and drug associated with different glycerides. Lymph samples were first treated with a lipase or other appropriate conditions to liberate free active agent prior to measurement of active agent levels in the lymph. Treatment with a lipase or other hydrolysis conditions liberates free active agent from any corresponding re-esterified glycerides. Porcine pancreatic lipase is appropriate for this purpose. Alternatively, hydrolysis with 0.5 M NaOH may be used.
For certain compounds, drug concentration was measured for the intact lipid prodrug specifically, without exposing the lymph samples to hydrolysis conditions.
Transport of compounds into lymph during each hourly collection period was calculated from the product of the volume of lymph collected and the measured concentrations in lymph. For fluorescent or fluorescently-labelled compounds, the concentrations of total compound may be measured by fluorescence spectroscopy without hydrolysis.
Table 5 summarizes lymphatic transport of total tofacitinib related compound (% of administered dose) following intraduodenal infusion to anaesthetised, mesenteric lymph-duct cannulated rats. Data are presented as mean±SD when n≥3 or mean± range when n=2. […]

Row | SMILES | Cumulative lymphatic transport % dose
1 | CCCCCCCCCCCCCCCC(=O)OCC(COC(=O)CCCCCCCCCCCCCCC)OC(=O)CC(C)CCCCCCC(=O)n1ccc2c(N(C)[C@H]3CN(C(=O)CC#N)CC[C@H]3C)ncnc21 (stereo partly drawn) [I-9, 2-((10-(4-(((3R,4R)-1-(2-cyanoacetyl)-4-methylpiperidin-3-yl)(methyl)amino)-7H-pyrrolo[2,3-d]pyrimidin-7-yl)-3-methyl-10-oxodecanoyl)oxy)propane-1,3-diyl dipalmitate] | B* (lymphatic transport assay result between 1% and 10% (1%-10%))
2 | CCCCCCCCCCCCCCCC(=O)OCC(COC(=O)CCCCCCCCCCCCCCC)OC(=O)CC(C)CCCCCCCCCCC(C)C(=O)n1ccc2c(N(C)[C@H]3CN(C(=O)CC#N)CC[C@H]3C)ncnc21 (stereo partly drawn) [I-39, 2-((15-(4-(((3R,4R)-1-(2-cyanoacetyl)-4-methylpiperidin-3-yl)(methyl)amino)-7H-pyrrolo[2,3-d]pyrimidin-7-yl)-3,14-dimethyl-15-oxopentadecanoyl)oxy)propane-1,3-diyl dipalmitate] | A* (lymphatic transport assay result of greater than 10% (>10%))

same assay, conditions: numeric value for parent drug, intraduodenal infusion, anaesthetised mesenteric lymph-duct cannulated rats

Row | SMILES | Cumulative lymphatic transport % dose
3 | C[C@@H]1CCN(C(=O)CC#N)C[C@@H]1N(C)c1ncnc2[nH]ccc12 [Tofacitinib, tofacitinib, reference compound] | <0.3 % dose

same assay, conditions: numeric value for parent drug, intraduodenal infusion, anaesthetised mesenteric lymph-duct cannulated rats; listed as tofacitinib

Row | SMILES | Cumulative lymphatic transport % dose
4 | C[C@@H]1CCN(C(=O)CC#N)C[C@@H]1N(C)c1ncnc2[nH]ccc12 [Tofacitinib, tofacitinib, reference compound] | < 0.3 % dose

same assay, conditions: total tofacitinib related compound (lymph hydrolysed before assay), intraduodenal infusion, anaesthetised mesenteric lymph-duct cannulated rats, lymph collected up to 8 h

Row | SMILES | Cumulative lymphatic transport % dose
5 | CCCCCCCCCCCCCCCC(=O)OCC(COC(=O)CCCCCCCCCCCCCCC)OC(=O)CC(C)CC(=O)OC(C)OC(=O)n1ccc2c(N(C)[C@H]3CN(C(=O)CC#N)CC[C@H]3C)ncnc21 (stereo partly drawn) [I-40, 1-(1,3-bis(palmitoyloxy)propan-2-yl) 5-(1-((4-(((3R,4R)-1-(2-cyanoacetyl)-4-methylpiperidin-3-yl)(methyl)amino)-7H-pyrrolo[2,3-d]pyrimidine-7-carbonyl)oxy)ethyl) 3-methylpentanedioate] | D (lymphatic transport assay result of less than 0.05% (<0.05%))
6 | CCCCCCCCCCCCCCCC(=O)OCC(COC(=O)CCCCCCCCCCCCCCC)OC(=O)CC(C)CCCCCCC(=O)Oc1c(C)cc(COC(=O)n2ccc3c(N(C)[C@H]4CN(C(=O)CC#N)CC[C@H]4C)ncnc32)cc1C (stereo partly drawn) [I-14, 10-(1,3-bis(palmitoyloxy)propan-2-yl) 1-(4-(((4-(((3R,4R)-1-(2-cyanoacetyl)-4-methylpiperidin-3-yl)(methyl)amino)-7H-pyrrolo[2,3-d]pyrimidine-7-carbonyl)oxy)methyl)-2,6-dimethylphenyl) 8-methyldecanedioate] | B (lymphatic transport assay result between 1% and 10% (1%-10%))
7 | CCCCCCCCCCCCCCCC(=O)OCC(COC(=O)CCCCCCCCCCCCCCC)OC(=O)CC(C)CCCCCCCCCCCC(=O)n1ccc2c(N(C)[C@H]3CN(C(=O)CC#N)CC[C@H]3C)ncnc21 (stereo partly drawn) [I-10, 2-((15-(4-(((3R,4R)-1-(2-cyanoacetyl)-4-methylpiperidin-3-yl)(methyl)amino)-7H-pyrrolo[2,3-d]pyrimidin-7-yl)-3-methyl-15-oxopentadecanoyl)oxy)propane-1,3-diyl dipalmitate] | B (lymphatic transport assay result between 1% and 10% (1%-10%))
8 | CCCCCCCCCCCCCCCC(=O)OCC(COC(=O)CCCCCCCCCCCCCCC)OC(=O)CC(C)CCCCCCCC(C)C(=O)Oc1c(C)cc(COC(=O)n2ccc3c(N(C)[C@H]4CN(C(=O)CC#N)CC[C@H]4C)ncnc32)cc1C (stereo partly drawn) [I-15, 12-(1,3-bis(palmitoyloxy)propan-2-yl) 1-(4-(((4-(((3R,4R)-1-(2-cyanoacetyl)-4-methylpiperidin-3-yl)(methyl)amino)-7H-pyrrolo[2,3-d]pyrimidine-7-carbonyl)oxy)methyl)-2,6-dimethylphenyl) 2,10-dimethyldodecanedioate] | A (lymphatic transport assay result of greater than 10% (>10%))
9 | CCCCCCCC/C=C\CCCCCCCC(=O)OCC(COC(=O)CCCCCCC/C=C\CCCCCCCC)OC(=O)CC(C)CCCCCCCCCC(C)CC(=O)n1ccc2c(N(C)[C@H]3CN(C(=O)CC#N)CC[C@H]3C)ncnc21 (stereo partly drawn) [I-33, 2-((15-(4-(((3R,4R)-1-(2-cyanoacetyl)-4-methylpiperidin-3-yl)(methyl)amino)-7H-pyrrolo[2,3-d]pyrimidin-7-yl)-3,13-dimethyl-15-oxopentadecanoyl)oxy)propane-1,3-diyl dioleate] | A (lymphatic transport assay result of greater than 10% (>10%))
10 | CCCCCCCCCCCCCCCC(=O)OCC(COC(=O)CCCCCCCCCCCCCCC)OC(=O)CC(C)CCCCCC(=O)n1ccc2c(N(C)[C@H]3CN(C(=O)CC#N)CC[C@H]3C)ncnc21 (stereo partly drawn) [I-7] | B (lymphatic transport assay result between 1% and 10% (1%-10%))
11 | CCCCCCCCCCCCCCCC(=O)OCC(COC(=O)CCCCCCCCCCCCCCC)OC(=O)CC(C)CCCCCCC(C)CC(=O)n1ccc2c(N(C)[C@H]3CN(C(=O)CC#N)CC[C@H]3C)ncnc21 (stereo partly drawn) [I-13, 2-((12-(4-(((3R,4R)-1-(2-cyanoacetyl)-4-methylpiperidin-3-yl)(methyl)amino)-7H-pyrrolo[2,3-d]pyrimidin-7-yl)-3,10-dimethyl-12-oxododecanoyl)oxy)propane-1,3-diyl dipalmitate] | A (lymphatic transport assay result of greater than 10% (>10%))
12 | CCCCCCCCCCCCCCCC(=O)OCC(COC(=O)CCCCCCCCCCCCCCC)OC(=O)CC(C)CCCCCCCCC(=O)Oc1c(C)cc(COC(=O)n2ccc3c(N(C)[C@H]4CN(C(=O)CC#N)CC[C@H]4C)ncnc32)cc1C (stereo partly drawn) [I-16, 1-(1,3-bis(palmitoyloxy)propan-2-yl) 12-(4-(((4-(((3R,4R)-1-(2-cyanoacetyl)-4-methylpiperidin-3-yl)(methyl)amino)-7H-pyrrolo[2,3-d]pyrimidine-7-carbonyl)oxy)methyl)-2,6-dimethylphenyl) 3-methyldodecanedioate] | A (lymphatic transport assay result of greater than 10% (>10%))
